Measured values taken from patent US7875650B2, “Compounds and methods to increase anti-P-glycoprotein activity of baicalein by alkylation on the A ring” (Yale University, priority 2004, dated 2011).
Where two headings read alike, the source gives them in different places. One block for each compound: values may come before it.

Assays:
[1] = biological target: T1, P-gp 170 (Homo sapiens, UniProt P08183)
[2] = biological target: T1, P-gp 170; assay: in vitro; conditions: for Amax (maximum accumulation of intracellular vinblastine), fold higher than control: human, 60 min
Text: (§1) The KB/MDR cells, which overexpress human P-gp 170 protein, were used to evaluate the anti-P-gp 170 activity of drugs. […] The concentration of compound required to achieve 50% maximum accumulation of vinblastine is presented as the EC50 value. The maximum accumulation of intracellular vinblastine caused by the compounds in one hour is expressed as Amax (picomoles/10^6 cells). The cell growth inhibitory activity of compounds is presented as the concentration required to inhibit 50% growth of KB or KB/MDR cell lines (IC50) following three days of compound treatment.
(§2) Vinblastine uptake by the KB/MDR cells. KB/MDR cells,^37 which overexpress human P-gp 170 protein, were seeded into 24-well tissue culture plates in RPMI 1640 medium plus 10% fetal bovine serum for 24 hours without the selecting agent doxorubicin (37 nM). The cells were then treated with [^3H]vinblastine plus synthetic flavones in HBSS for 60 minutes. The cells were washed twice with ice-cold PBS, harvested with 1 N NaOH, neutralized with 1 N HCl. The cell aliquots were transferred to scintillation vials and counted with a […] (Beckman, model LS 5000) after adding 10 mL scintillation fluids (SafeScint, American Bioanalytical Co., Natick, Mass.). Data presented are the mean of three independent experiments.

[3] = biological target: P-gp 170 (human P-glycoprotein) (Homo sapiens, UniProt P08183); assay: in vitro; conditions: human
Text: as §1, §2

[4] = test system: KB/MDR cells; assay: Growth inhibitory assay, KB/MDR cells; type: cell-based, human; conditions: 3 days
Description: (§3) The cells were then fixed and stained with methylene blue in 50% MeOH, washed thoroughly with tap water, and dissolved with 0.5 mL 0.5% sarcosyl.^38 The amount of cellular protein, which is proportional to the cell number, is estimated by the absorption (OD595nm). The growth inhibitory assay, which is presented as an IC50 value, represents the concentration of compound required to inhibit 50% of cell growth. The cell doubling time of KB and KB/MDR cells is about 20 to 24 hours. The data presented are the mean of three independent experiments.

[5] = test system: KB cells; assay: Growth inhibitory assay, KB cells; type: cell-based, human; conditions: 3 days
Description: as §3

[6] = biological target: T1, P-gp 170; assay: Inhibitory activity of Scute and its components against P-gp 170 efflux action (previous study)
[7] = biological target: P-gp (Homo sapiens, UniProt P08183); conditions: their (Boumendjel et al.) experiments; cited from earlier work
P-gp, sequence (P08183 whole entry): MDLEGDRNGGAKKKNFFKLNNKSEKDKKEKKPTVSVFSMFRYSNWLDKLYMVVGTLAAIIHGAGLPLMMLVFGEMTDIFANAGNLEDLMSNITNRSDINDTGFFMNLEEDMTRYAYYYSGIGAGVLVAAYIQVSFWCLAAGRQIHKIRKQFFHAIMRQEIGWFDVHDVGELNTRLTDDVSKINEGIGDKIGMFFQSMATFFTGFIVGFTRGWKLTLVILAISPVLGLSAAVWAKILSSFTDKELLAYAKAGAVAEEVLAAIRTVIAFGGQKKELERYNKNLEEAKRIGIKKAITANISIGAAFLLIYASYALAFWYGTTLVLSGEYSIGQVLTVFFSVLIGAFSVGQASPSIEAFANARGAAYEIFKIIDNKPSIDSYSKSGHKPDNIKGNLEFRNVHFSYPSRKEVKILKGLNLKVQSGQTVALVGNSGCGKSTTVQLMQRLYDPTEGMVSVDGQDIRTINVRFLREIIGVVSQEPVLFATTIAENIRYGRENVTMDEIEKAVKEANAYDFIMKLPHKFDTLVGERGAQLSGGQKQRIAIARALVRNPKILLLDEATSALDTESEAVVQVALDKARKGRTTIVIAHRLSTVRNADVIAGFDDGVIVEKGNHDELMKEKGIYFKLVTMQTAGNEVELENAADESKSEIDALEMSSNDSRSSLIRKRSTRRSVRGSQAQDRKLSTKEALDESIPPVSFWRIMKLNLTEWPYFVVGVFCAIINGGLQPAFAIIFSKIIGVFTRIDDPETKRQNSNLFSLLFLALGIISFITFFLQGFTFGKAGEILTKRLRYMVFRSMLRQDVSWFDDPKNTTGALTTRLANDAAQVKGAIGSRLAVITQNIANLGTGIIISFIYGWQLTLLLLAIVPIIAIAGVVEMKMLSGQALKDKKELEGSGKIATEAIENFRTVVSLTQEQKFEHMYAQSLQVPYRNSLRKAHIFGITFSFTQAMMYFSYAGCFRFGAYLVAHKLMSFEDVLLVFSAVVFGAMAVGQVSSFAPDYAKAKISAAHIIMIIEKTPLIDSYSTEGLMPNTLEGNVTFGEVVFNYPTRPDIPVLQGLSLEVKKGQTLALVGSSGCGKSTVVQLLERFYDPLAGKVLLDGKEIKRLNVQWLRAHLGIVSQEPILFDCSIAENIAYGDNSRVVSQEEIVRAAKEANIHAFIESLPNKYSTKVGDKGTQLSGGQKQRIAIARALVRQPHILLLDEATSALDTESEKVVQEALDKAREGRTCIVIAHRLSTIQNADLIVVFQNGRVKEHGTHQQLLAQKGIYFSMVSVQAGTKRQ

T1 sequence (P08183 whole entry): as above
P-gp 170 (human P-glycoprotein), sequence (P08183 whole entry): as above

Compound: O=c1cc(-c2ccccc2)oc2cc(O)c(O)c(O)c12 [Compound 1, baicalein]
- anti-P-gp 170 activity in words [1]: active component

Compound: CCCCOc1cc2oc(-c3ccccc3)cc(=O)c2c(O)c1OCCCC [Compound 45, 6,7-Dibutoxy-5-hydroxyflavone]
- melting point: 116 to 117 °C

- melting point: 126 to 128 °C
Compound: CCOc1cc2oc(-c3ccccc3)cc(=O)c2c(OC)c1OCC

Compound: CC(=O)Oc1cc2oc(-c3ccccc3)cc(=O)c2c(O)c1OCc1ccccc1 [Compound 10, 7-Acetoxy-6-(benzoxy)-5-hydroxyflavone]
- anti-P-gp 170 efflux activity (EC50, Amax) in words [2]: low EC50 but higher Amax in comparison with baicalein

- melting point: 133 to 134 °C
Compound: CCOc1c(OC)cc2oc(-c3ccccc3)cc(=O)c2c1O [Compound 38, 6-Ethoxy-5-hydroxy-7-methoxyflavone]

Compound: CC(=O)Oc1c(OC(C)=O)c(O)c2c(=O)cc(-c3ccccc3)oc2c1Br [Compound 24, 6,7-Diacetoxy-8-bromo-5-hydroxyflavone]
- anti-P-gp 170 efflux activity (EC50, Amax) in words [2]: less favorable activity against P-gp 170 activity than compound 3
- melting point: 244 to 246 °C

Compound: O=c1cc(-c2ccccc2)oc2cc(O)c(OCc3ccccc3)c(O)c12 [Compound 15, 6-(Benzoxy)-5,7-dihydroxyflavone]
- anti-P-gp 170 efflux activity (EC50, Amax) in words [2]: low EC50 but higher Amax in comparison with baicalein

- EC50 at 60 min [3]: 1400 nM
- Amax (maximum accumulation of intracellular vinblastine), fold higher than control [2]: 10 fold
Compound: CCCOc1cc2oc(-c3ccccc3)cc(=O)c2c(O)c1OCCC [Compound 18, 5-Hydroxy-6,7-dipropoxyflavone]

Compound: O=c1cc(-c2ccccc2)oc2cc(OCc3ccccc3)c(OCc3ccccc3)c(O)c12 [Compound 16, 6,7-(Dibenzoxy)-5-hydroxy-flavone]
- cytotoxicity in words [4]: decreased and lost
- cytotoxicity in words [5]: decreased and lost

Compound: COc1c(O[C@@H]2O[C@H](C(=O)O)[C@@H](O)[C@H](O)[C@H]2O)cc(O)c2c(=O)cc(-c3ccccc3)oc12 [wogonoside]
- anti-P-gp 170 activity in words [6]: lack inhibitory activity

- EC50 [2]: 4600 nM
Compound: COc1cc2oc(-c3ccccc3)cc(=O)c2c(OC)c1OC [Compound 6, 5,6,7-Trimethoxyflavone]

Compound: CC(=O)Oc1cc2oc(-c3ccccc3)cc(=O)c2c(OCc2ccccc2)c1OC(C)=O [Compound 9, 6,7-Diacetoxy-5-(benzoxy)flavone]
- anti-P-gp 170 efflux activity (EC50, Amax) in words [2]: low EC50 but higher Amax in comparison with baicalein
- melting point: 175 to 177 °C

Compound: CCCCOc1cc2oc(-c3ccccc3)cc(=O)c2c(OC)c1OCCCC [Compound 46, 6,7-Dibutoxy-5-methoxyflavone]
- melting point: 103 to 105 °C

Compound: CC(=O)Oc1c(OCc2ccccc2)cc2oc(-c3ccccc3)cc(=O)c2c1OC(C)=O [Compound 14, 5,6Diacetoxy-7-(benzoxy)flavone]
- anti-P-gp 170 efflux activity (EC50, Amax) in words [2]: low EC50 but higher Amax in comparison with baicalein
- melting point: 174 to 175 °C

- anti-P-gp 170 efflux activity (EC50, Amax) in words [2]: decreased
Compound: COc1c2c(cc3oc(-c4ccccc4)cc(=O)c13)OC(c1ccccc1)(c1ccccc1)O2 [Compound 13, 6,7-(Diphenylmethylenedioxy)-5-methoxyflavone]
- cytotoxicity in words [4]: decreased
- cytotoxicity in words [5]: decreased

- EC50 [2]: 5500 nM
Compound: COc1cc2oc(-c3ccccc3)cc(=O)c2c(O)c1OC [Compound 8, 5-Hydroxy-6,7-dimethoxyflavone]

- anti-P-gp 170 activity in words [1]: lack inhibitory activity
Compound: COc1c(O)cc(O)c2c(=O)cc(-c3ccccc3)oc12 [wogonin, 5,7-dihydroxy-8-methoxyflavone]

Compound: CCOc1cc2oc(-c3ccccc3)cc(=O)c2c(O)c1OCC [Compound 33, 6,7-Diethoxy-5-hydroxyflavone]
- EC50 [2]: 1800 nM

Compound: CCCOc1cc2oc(-c3ccccc3)cc(=O)c2c(OC)c1OCCC [Compound 23, 5-Methoxy-6,7-dipropoxyflavone]
- EC50 [2]: 900 nM

Compound: CC(=O)Oc1c(O)cc2oc(-c3ccccc3)cc(=O)c2c1O [Compound 2, 6-Acetoxy-5,7-dihydroxyflavone]
- EC50 relative to the parental compound (baicalein) [2]: one-fourth
- melting point: 205 to 207 °C

Compound: O=c1cc(-c2ccccc2)oc2cc(OCc3ccccc3)cc(O)c12 [7-benzoxy-5-hydroxyflavone]
- Amax / drug accumulation as compared to cyclosporin A [7]: 25%

Compound: CCOc1c(O)cc2oc(-c3ccccc3)cc(=O)c2c1O [Compound 32, 6-Ethoxy-5,7-dihydroxyflavone]
- EC50 [2]: 2300 nM

- EC50 at 60 min [3]: 15000 nM
- anti-P-gp 170 efflux activity (EC50, Amax) in words [2]: Amax did not change
Compound: O=c1cc(-c2ccccc2)oc2c(Br)c(O)c(O)c(O)c12 [Compound 25, 8-Bromo-5,6,7-trihydroxyflavone]

Compound: CC(=O)Oc1cc2oc(-c3ccccc3)cc(=O)c2c(O)c1OC(C)=O [Compound 3, 6,7-Diacetoxy-5-hydroxyflavone]
- EC50 relative to the parental compound (baicalein) ([2]; KB/MDR cells): one-fourth

- EC50 [2]: 1200 nM
- Amax (maximum accumulation of intracellular vinblastine), fold higher than control [2]: 9 fold
Compound: CCCOc1c(OC)cc2oc(-c3ccccc3)cc(=O)c2c1O [Compound 21, 5-Hydroxy-7-methoxy-6-propoxyflavone]

Compound: COc1cc2oc(-c3ccccc3)cc(=O)c2c(OC)c1OC(C)=O [Compound 5, 6-Acetoxy-5,7-dimethoxyflavone]
- melting point: 208 to 210 °C

- EC50 [2]: 2000 nM
- Amax (maximum accumulation of intracellular vinblastine), fold higher than control [2]: 9 fold
- melting point: 162 to 163 °C
Compound: CCCOc1c(O)cc2oc(-c3ccccc3)cc(=O)c2c1O [Compound 17, 5,7-Dihydroxy-6-propoxyflavone]
